Results as given in patent publication US20060069132A1, “Azolecarboxamide herbicides” (priority 2004, published 2006).

What was measured:
lambsquarters = assay: Test C pre-/postemergence herbicide test; format: in vivo, Chenopodium album
How it was run: (§1)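 Emerged plants at the 1- to 4-leaf stage (2–18 cm), or freshly planted seeds, received test chemicals in a non-phytotoxic solvent mixture with surfactant. Response was visually scored against controls after 12 to 14 days in the greenhouse, on a 0 (no effect) to 100 (complete control) scale.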

Surinam grass = assay: Test C pre-/postemergence herbicide test; format: in vivo, Urochloa decumbens
How it was run: as §1

[1] = system: common (oilseed) sunflower; assay: Test C pre-/postemergence herbicide test; format: in vivo, Helianthus annuus; conditions: preemergence
How it was run: as §1

giant foxtail = assay: Test C pre-/postemergence herbicide test; format: in vivo, Setaria faberi
How it was run: as §1

velvetleaf = assay: Test A pre-/postemergence herbicide test; format: in vivo, Abutilon theophrasti
How it was run: (§2)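 Both application timings were run together: directed soil spray over freshly planted seeds in sandy loam, and runoff spray onto 2–10 cm seedlings. Evaluation after ~10 days in greenhouse used a 0–100 visual scale versus untreated controls.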

yellow nutsedge = assay: Test C pre-/postemergence herbicide test; format: in vivo, Cyperus esculentus
How it was run: as §1

morningglory [2] = assay: Test C pre-/postemergence herbicide test; format: in vivo, Ipomoea coccinea; design: key to Plant response rating, Morningglory: 0 = no effect, 100 = complete control
How it was run: as §1

morningglory [3] = assay: Test A pre-/postemergence herbicide test; format: in vivo, Ipomoea spp.
How it was run: as §2

woolly cupgrass = assay: Test C pre-/postemergence herbicide test; format: in vivo, Eriochloa villosa
How it was run: as §1

corn = assay: Test C pre-/postemergence herbicide test; format: in vivo, Zea mays
How it was run: as §1

[4] = 31 g ai/ha, preemergence, scale 0 to 100
[5] = 125 g ai/ha, scale 0-100, preemergence
[6] = postemergence, 125 g ai/ha, scale 0 to 100
[7] = postemergence, 31 g ai/ha, scale 0 to 100
[8] = postemergence, 62 g ai/ha, scale 0 to 100
[9] = Postemergence, 125 g ai/ha, scale 0 to 100, 0 no effect, 100 complete control
[10] = Postemergence, 500 g ai/ha, 0 to 100 scale, 0 no effect, 100 complete control
[11] = Postemergence, 2000 g ai/ha, 0 to 100 scale, 0 no effect, 100 complete control
[12] = Preemergence, 500 g ai/ha, visual rating, 0 to 100 scale (0 no effect, 100 complete control)
[13] = Preemergence, 2000 g ai/ha, 0 to 100 scale, 0 no effect, 100 complete control
[14] = 62 g ai/ha, preemergence, scale 0 to 100
[15] = 125 g ai/ha, scale 0 (no effect) to 100 (complete control), visual, 12 to 14 days, preemergence
[16] = 250 g ai/ha, scale 0-100, preemergence
[17] = 500 g ai/ha, scale 0 to 100 (0 no effect, 100 complete control), visual, 12 to 14 days, preemergence
[18] = Preemergence, 2000 g ai/ha, visual rating, 0 to 100 scale (0 no effect, 100 complete control)
[19] = preemergence, 500 g ai/ha, visual injury, 0 to 100 scale (0 no effect, 100 complete control)

C=Cn1nc(C(C)(C)C)cc1C(=O)Nc1cccc(C(=O)NCC)c1 [Compound 33]
Plant response rating, Lambsquarters (lambsquarters; [4]): 80
Plant response rating (0 = no effect, 100 = complete control), Lambsquarters (lambsquarters; 62 g ai/ha, preemergence): 100
Plant response rating, Lambsquarters (lambsquarters; [5]): 100
Plant response rating, Lambsquarters (lambsquarters; [6]): 90
Plant response rating, Lambsquarters (lambsquarters; [7]): 90
Plant response rating, Lambsquarters (lambsquarters; [8]): 90
Plant response rating, Surinam Grass (Surinam grass; [4]): 20
Plant response rating (0 = no effect, 100 = complete control), Surinam Grass (Surinam grass; 62 g ai/ha, preemergence): 20
Plant response rating, Surinam Grass (Surinam grass; [6]): 50
Plant response rating, Surinam Grass (Surinam grass; [7]): 50
Plant response rating, Surinam Grass (Surinam grass; [8]): 50
Plant response rating, Sunflower ([1]; 31 g ai/ha, scale 0 to 100): 0
Plant response rating (0 = no effect, 100 = complete control), Sunflower ([1]; 62 g ai/ha): 0
Plant response rating, Foxtail, Giant (giant foxtail; [4]): 10
Plant response rating (0 = no effect, 100 = complete control), Foxtail, Giant (giant foxtail; 62 g ai/ha, preemergence): 20
Plant response rating, Foxtail, Giant (giant foxtail; [5]): 60
Plant response rating, Foxtail, Giant (giant foxtail; [9]): 30
Plant response rating, Foxtail, Giant (giant foxtail; [7]): 30
Plant response rating, Foxtail, Giant (giant foxtail; [8]): 30
Plant response rating, Velvetleaf (velvetleaf; [10]): 30
Plant response rating, Velvetleaf (velvetleaf; [11]): 40
Velvetleaf plant response rating (velvetleaf; [12]): 20
Velvetleaf plant response rating (velvetleaf; [13]): 80
Plant response rating, Nutsedge, Yellow (yellow nutsedge; 16 g ai/ha, scale 0 to 100, last section of Table C, preemergence): 0
Plant response rating, Nutsedge, Yellow (yellow nutsedge; [4]): 0
Plant response rating (0 = no effect, 100 = complete control), Nutsedge, Yellow (yellow nutsedge; 62 g ai/ha, preemergence): 0
Plant response rating, Nutsedge, Yellow (yellow nutsedge; [6]): 10
Plant response rating, Nutsedge, Yellow (yellow nutsedge; [7]): 0
Plant response rating, Nutsedge, Yellow (yellow nutsedge; [8]): 0
Plant response rating, Morningglory (morningglory [2]; [4]): 0
Plant response rating (0 = no effect, 100 = complete control), Morningglory (morningglory [2]; 62 g ai/ha, preemergence): 0
Plant response rating, Morningglory (morningglory [2]; [6]): 30
Plant response rating, Morningglory (morningglory [2]; [7]): 20
Plant response rating, Morningglory (morningglory [2]; [8]): 20
Plant response rating, Morningglory (morningglory [3]; [10]): 10
Plant response rating, Morningglory (morningglory [3]; [11]): 25
Morningglory plant response rating (morningglory [3]; [12]): 35
Morningglory plant response rating (morningglory [3]; [13]): 70
Plant response rating, Cupgrass, Woolly (woolly cupgrass; [4]): 20
Plant response rating (0 = no effect, 100 = complete control), Cupgrass, Woolly (woolly cupgrass; 62 g ai/ha, preemergence): 20
Plant response rating, Cupgrass, Woolly (woolly cupgrass; [5]): 50
Plant response rating, Cupgrass, Woolly (woolly cupgrass; [9]): 60
Plant response rating, Cupgrass, Woolly (woolly cupgrass; [7]): 50
Plant response rating, Cupgrass, Woolly (woolly cupgrass; [8]): 60
Plant response rating, Corn (corn; [4]): 0
Plant response rating (0 = no effect, 100 = complete control), Corn (corn; 62 g ai/ha, preemergence): 0
Plant response rating, Corn (corn; [5]): 0
Plant response rating, Corn (corn; [9]): 40
Plant response rating, Corn (corn; [7]): 40
Plant response rating, Corn (corn; [8]): 40

CCNC(=O)c1cccc(NC(=O)c2sc(C(C)(C)C)nc2CC)n1 [Compound 213]
Plant response rating, Lambsquarters (lambsquarters; [14]): 80
Plant response rating, Lambsquarters (lambsquarters; [15]): 95
Plant response rating, Lambsquarters (lambsquarters; [16]): 100
Plant response rating, Lambsquarters (lambsquarters; [17]): 100
Plant response rating, Surinam Grass (Surinam grass; [14]): 0
Plant response rating, Surinam Grass (Surinam grass; [15]): 0
Plant response rating, Surinam Grass (Surinam grass; [16]): 20
Plant response rating, Surinam Grass (Surinam grass; [17]): 60
Plant response rating, Sunflower ([1]; 62 g ai/ha, scale 0 to 100): 0
Plant response rating, Sunflower ([1]; 125 g ai/ha, scale 0 (no effect) to 100 (complete control), visual, 12 to 14 days): 0
Plant response rating, Sunflower ([1]; 250 g ai/ha, scale 0-100): 0
Plant response rating, Sunflower ([1]; 500 g ai/ha, scale 0 to 100 (0 no effect, 100 complete control), visual, 12 to 14 days): 0
Plant response rating, Foxtail, Giant (giant foxtail; [14]): 30
Plant response rating, Foxtail, Giant (giant foxtail; [15]): 50
Plant response rating, Foxtail, Giant (giant foxtail; [16]): 95
Plant response rating, Foxtail, Giant (giant foxtail; [17]): 100
Velvetleaf plant response rating (velvetleaf; [10]): 30
Plant response rating, Velvetleaf (velvetleaf; [11]): 25
Velvetleaf plant response rating (velvetleaf; [18]): 35
Velvetleaf plant response rating (velvetleaf; [19]): 15
Plant response rating, Nutsedge, Yellow (yellow nutsedge; [14]): 0
Plant response rating, Nutsedge, Yellow (yellow nutsedge; [15]): 0
Plant response rating, Nutsedge, Yellow (yellow nutsedge; [16]): 0
Plant response rating, Nutsedge, Yellow (yellow nutsedge; [17]): 0
Plant response rating, Morningglory (morningglory [2]; [14]): 0
Plant response rating, Morningglory (morningglory [2]; [15]): 0
Plant response rating, Morningglory (morningglory [2]; [16]): 0
Plant response rating, Morningglory (morningglory [2]; [17]): 0
Morningglory plant response rating (morningglory [3]; [10]): 20
Plant response rating, Morningglory (morningglory [3]; [11]): 10
Morningglory plant response rating (morningglory [3]; [18]): 60
Morningglory plant response rating (morningglory [3]; [19]): 25
Plant response rating, Cupgrass, Woolly (woolly cupgrass; [14]): 0
Plant response rating, Cupgrass, Woolly (woolly cupgrass; [15]): 0
Plant response rating, Cupgrass, Woolly (woolly cupgrass; [16]): 0
Plant response rating, Cupgrass, Woolly (woolly cupgrass; [17]): 30
Plant response rating, Corn (corn; [14]): 0
Plant response rating, Corn (corn; [15]): 0
Plant response rating, Corn (corn; [16]): 30
Plant response rating, Corn (corn; [17]): 40
